Test results reported in ChEMBL document CHEMBL3044587, “Synthesis of B-ring substituted flavones and evaluation of their antitumor and antioxidant activities” (Med Chem Res, 2013).
Values after ≈ are worked out from the molar mass of the structure shown. Where a name gives a salt, the structure may show the parent alone.

Experiments:
Type in all cases: functional
MCF7 [1] = test: Cytotoxicity against Homo sapiens (human) MCF7 cells after 48 hr by SRB assay; settings: MCF7, 48 h
MOLT-4 [2] = test: Cytotoxicity against Homo sapiens (human) MOLT4 cells after 48 hr by SRB assay; settings: MOLT-4, 48 h
Liver microsome = test: Antioxidant activity in Wistar albino Rattus norvegicus (rat) liver microsomes assessed as inhibition of lipid peroxidation after 1 hr by TBARS method
HepG2 [3] = test: Growth inhibition of Homo sapiens (human) HepG2 cells at 100 uM after 48 hr by SRB assay; settings: HepG2, 48 h, read-out: GI
HepG2 [4] = test: Cytotoxicity against Homo sapiens (human) HepG2 cells after 48 hr by SRB assay; settings: HepG2, 48 h
MOLT-4 [5] = test: Growth inhibition of Homo sapiens (human) MOLT4 cells at 100 uM after 48 hr by SRB assay; settings: MOLT-4, 48 h, read-out: GI
MCF7 [6] = test: Growth inhibition of Homo sapiens (human) MCF7 cells at 100 uM after 48 hr by SRB assay; settings: MCF7, 48 h, read-out: GI

Row | Compound | IC50 (Liver microsome) [µg/mL] | GI50 (MCF7 [1]) [µM] | GI50 (MOLT-4 [2]) [µM] | inhibition of growth at 100 µM (HepG2 [3]) [%] | GI50 (HepG2 [4]) [µM] | inhibition of growth at 100 µM (MOLT-4 [5]) [%] | inhibition of growth at 100 µM (MCF7 [6]) [%]
1 | O=c1cc(-c2ccc(Cl)c([N+](=O)[O-])c2)oc2ccccc12 | 80 (≈ 265 µM) | 40.9 | 50.7 |  | 93.8 |  | 
2 | COc1cccc2c1C(=O)c1c(O)c3c(c(O)c1C2=O)C[C@@](O)(C(=O)CO)C[C@@H]3O[C@H]1C[C@H](N)[C@H](O)[C@H](C)O1 [DOXORUBICIN HYDROCHLORIDE] |  | < 0.1 | < 0.1 |  | < 0.1 |  | 
3 | O=c1c(O)c(-c2ccc(O)c(O)c2)oc2cc(O)cc(O)c12 [QUERCETIN] | 20 (≈ 66.2 µM) |  |  |  |  |  | 
4 | O=c1cc(-c2cccc([N+](=O)[O-])c2)oc2ccccc12 | 60 (≈ 225 µM) | 31 | 36 |  | 94.9 |  | 

Second part, led by results:

Row | IC50 (Liver microsome) [µg/mL] | Compound | GI50 (MCF7 [1]) [µM] | GI50 (MOLT-4 [2]) [µM] | inhibition of growth at 100 µM (HepG2 [3]) [%] | GI50 (HepG2 [4]) [µM] | inhibition of growth at 100 µM (MOLT-4 [5]) [%] | inhibition of growth at 100 µM (MCF7 [6]) [%]
5 | 60 (≈ 238 µM) | COc1ccc(-c2cc(=O)c3ccccc3o2)cc1 [4'-METHOXYFLAVONE] | 61.8 | 99.2 | < 50 |  |  | 
6 | 100 (≈ 450 µM) | O=c1cc(-c2ccccc2)oc2ccccc12 [FLAVONE] | 69.3 |  |  | 50.6 | < 50 | 
7 | 60 (≈ 236 µM) | O=c1cc(-c2ccccc2)oc2cc(O)cc(O)c12 [CHRYSIN] | 69 | 58.6 | < 50 |  |  | 
8 | 40 (≈ 142 µM) | COc1cc(OC)cc(-c2cc(=O)c3ccccc3o2)c1 [3',5'-DIMETHOXYFLAVONE] | < 0.1 | < 0.1 |  | 58.8 |  | 
9 | 60 (≈ 234 µM) | O=c1cc(-c2ccc(Cl)cc2)oc2ccccc12 |  |  | < 50 |  | < 50 | < 50
10 | 40 (≈ 142 µM) | COc1ccc(-c2cc(=O)c3ccccc3o2)cc1OC [3',4'-DIMETHOXYFLAVONE] |  |  | < 50 |  | < 50 | < 50
